From patent US20080014218A1, “USE OF TIGHT JUNCTION AGONISTS TO […] DELIVERY OF THERAPEUTIC AGENTS” (ALBA THERAPEUTICS CORP., priority 2006, published 2008)
Where no end group is shown, it is not given here.

Conditions: rats, lung instillation, 10 μg salmon calcitonin + 1 mg FCIGRL vs 10 μg salmon calcitonin alone
Description: An aqueous saline solution containing 10 μg of salmon calcitonin was instilled into the lungs of rats and serum calcitonin levels were measured by ELISA. An aqueous saline solution containing 10 μg of salmon calcitonin and 1 mg of the tight junction agonist peptide FCIGRL was instilled into the lungs of rats and serum calcitonin levels were measured by ELISA.

## FCIGRL [FCIGRL]
  increase in area under the curve (AUC) of serum calcitonin: approximately 10.6 fold
  increase in observed peak serum calcitonin levels: approximately three-fold
